Experimental data published in publication PMC6434189, “Peperomin E and its orally bioavailable analog induce oxidative stress-mediated apoptosis of acute myeloid leukemia progenitor cells by targeting thioredoxin reductase” (Redox Biology, 2019).
Where two headings read alike, the source gives them in different places.

Legend:
[1] = Pharmacokinetic study of DMAPE in rats; type: in vivo, Sprague–Dawley rats; conditions: for MRT last: read-out: MRT 0-t; for MRT inf: read-out: MRT 0-∞
Excerpt: The UFLC-MS/MS system consisted of a Prominence™ UFLC system (Shimadzu, Kyoto, Japan) coupled with a QTRAP™ 5500 MS/MS system (Applied Biosystems/MDS SCIEX, Foster City, CA, USA) and controlled by the Analyst 1.5.2 software. MS‐grade methanol and acetonitrile were purchased from Merck (Darmstadt, Germany). Ultra‐pure water was generated using a MilliQ™ direct water purification system (Merck–Millipore, Billerica, MA, USA). The mass spectra and chromatographic conditions, method validations, standard and sample preparation for simultaneous determination of DMAPE and its parent drug PepE in rat plasma are provided in the Additional method in Supplementary Materials.
Male Sprague–Dawley rats weighing 200 ± 20 g were supplied by the Qinglongshan Experimental Animal Breeding Company (Nanjing, China). The experiment protocol was approved by the Animal Ethics Committee of Nanjing University of Chinese Medicine (Nanjing, China). The rats were housed under controlled environmental conditions (temperature 25 ± 2 °C, relative humidity 50 ± 10%) with free access to standard laboratory food and water. Before drug administration, the rats were randomly divided into two groups (eight rats per group) and fasted for 12 h with access to water. DMAPE phosphate salt aqueous solution was i. g. (50 mg/kg) or i. v. (50 mg/kg) administrated. Blood samples were collected from the tail vein into heparinized Eppendorf tubes using lithium heparin‐containing microvettes. The plasma was obtained by centrifugation of the blood at 5000 rpm for 10 min and then frozen at −20 °C until analysis. Pharmacokinetic parameters were calculated using the DAS 2.1.1 software (Pharmacological Society of China, China) using non-compartmental analysis.

KG-1a CD34+ cells = assay: Annexin V-FITC/PI apoptosis assay; type: cell-based, human; conditions: 6 μM; for cell apoptosis (early + late): 12 h; for apoptotic population (early + late): 24 h
Excerpt: The cells were harvested and washed twice with PBS. The apoptotic cells, necrotic cells, and live cells were identified by PI and Annexin V-FITC staining assay following the manufacturer's instructions. Data were obtained and analyzed using a BD Accuri™ C6 flow cytometer (BD Biosciences, San Jose, CA, USA) with CellQuest software (BD Biosciences).

Sec residue in TrxR1 = target: T1, Sec residue in TrxR1 (Homo sapiens, UniProt Q16881); assay: BIAM labeling assay; type: biochemical; conditions: pH 6.5; PepE 1, 5, 10 μM; DNCB 5 μM
T1 construct: purchased Abcam ab204206
T1 sequence (Q16881 1-499 isoform Q16881-5): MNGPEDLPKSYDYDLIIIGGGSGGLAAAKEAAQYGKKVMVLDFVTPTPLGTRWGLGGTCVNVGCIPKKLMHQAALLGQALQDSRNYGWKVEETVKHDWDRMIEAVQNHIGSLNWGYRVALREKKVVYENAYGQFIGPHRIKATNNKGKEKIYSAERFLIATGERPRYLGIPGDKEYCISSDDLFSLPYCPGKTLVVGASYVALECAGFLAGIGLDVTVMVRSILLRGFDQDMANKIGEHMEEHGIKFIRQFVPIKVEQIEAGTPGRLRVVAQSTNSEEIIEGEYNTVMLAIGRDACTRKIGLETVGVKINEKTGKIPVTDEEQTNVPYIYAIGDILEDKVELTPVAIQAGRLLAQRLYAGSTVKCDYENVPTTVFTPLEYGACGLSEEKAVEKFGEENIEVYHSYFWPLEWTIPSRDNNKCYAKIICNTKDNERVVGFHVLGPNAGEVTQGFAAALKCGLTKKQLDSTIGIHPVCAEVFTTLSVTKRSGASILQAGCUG
Experimental: To further assess whether the Sec residue in TrxR1 was the modified site of PepE. The BIAM labeling assay was performed according to previous report. Briefly, 100 μM BIAM stock solution in 100 mM Tris-HCl, 1 mM EDTA buffer (pH = 6.5) was freshly prepared before each test. The TrxR1 protein (1 μM) was incubated with different concentrations (1, 5, 10 μM) of PepE or 5 μM of DNCB (positive control) and DMSO (negative control) in 50 mM Tris-HCl, 1 mM EDTA buffer (pH = 7.5) and 400 μM NADPH at 37 °C. After incubation, 4 μL of the reaction mixture was withdrawn and added mixed with 20 μM of BIAM solution in 100 mM Tris-HCl, 1 mM EDTA assay buffer (pH = 6.5) for 30 min at 37 °C to allow selective alkylation of free Sec residues. The reaction was stopped by adding the IAA solution (final concentration 50 mM). The samples were then denatured in SDS buffer, boiled and subjected to SDS-PAGE and western-blotting on a 7.5% gel, and the separated proteins were transferred to nitrocellulose membrane. The enzymes labeled with BIAM were detected with HRP-conjugated streptavidin and enhanced chemiluminescence detection. The bands were analyzed using Gel-pro 32 software.

[2] = target: T2, TrxR1 in KG-1a CD34+ cells (Homo sapiens, UniProt Q16881); assay: Imaging TrxR1 activity in cells with TR-green; type: cell-based; conditions: 2 and 6 μM, dose-dependent
T2 construct: image TrxR activity in intact isolated KG-1a CD34^+ cells; endogenous in cells; host or cells: KG-1a CD34+ cells
T2 sequence (Q16881 1-499 isoform Q16881-5): T1 sequence (Q16881 1-499 isoform Q16881-5)
Experimental: The specific fluorescence probe of TrxR – TR-green was employed to image TrxR activity in intact isolated KG-1a CD34^+ cells using previously published methods. Briefly, KG-1a CD34^+ cells (5 × 10^5) were incubated with 2 μM and 6 μM PepE or DMAPE (Previously reported TrxR1 inhibitor Parthenolide was used as the positive control, 0.1% DMSO was used as the negative control) in 6-well plates for 12 h, then 10 μM TR-green was added to each plate and incubated at 37 °C for 3 h. Fluorescence and brightfield images were captured using an inverted fluorescence microscope IX-73 (Olympus) with Metamorph software (Molecular Devices).

[3] = Stability of the analytes in rat plasma (UFLC-MS/MS); type: in vitro ADME; conditions: for Freeze-thaw 3 cycles RE (%) / Store at -20℃ for 24h RE (%) / Store at auto-sampler RE (%): rat plasma, n=6; for stability in rat plasma samples: −20 °C for 15 days, three freeze/thaw cycles, room temperature 6 h, autosampler 4 °C 12 h
[4] = male, Sprague-Dawley, po, rat plasma, DMAPE 50 mg/kg intragastric
[5] = male, Sprague-Dawley, rat, plasma, po, 50 mg/kg, rat plasma, DMAPE 50 mg/kg intragastric
[6] = male, Sprague-Dawley, rat plasma, DMAPE 50 mg/kg intravenous

AUC(0-inf) [1, 4] | AUC(0-t) [1, 4] | Cmax [1, 4] | half-life [1, 4] | MRT last [1, 4] | MRT inf [1, 4] | Tmax [1, 5] | AUC(0-inf) [1, 6] | AUC(0-t) [1, 6] | Cmax [1, 6] | clearance [1, 6] | half-life [1, 6] | MRT last [1, 6] | MRT inf [1, 6] | TR-green fluorescence intensities (cellular TrxR1 activity) [2] | Freeze-thaw 3 cycles RE (%) ([3]; 5 ng/ml) | Store at -20℃ for 24h RE (%) ([3]; 5 ng/ml) | Store at auto-sampler RE (%) ([3]; 5 ng/ml) | SMILES | cell apoptosis (early + late) (KG-1a CD34+ cells) | apoptotic population (early + late) (KG-1a CD34+ cells) | also measured
10700 ± 2930 ng·h/mL | 10600 ± 2930 ng·h/mL | 2300 ± 270 ng/mL | 7.02 ± 1.3 h | 7.32 ± 0.82 h | 7.75 ± 0.74 h | ≤ 0.85 h | 11400 ± 3520 ng·h/mL | 11300 ± 3520 ng·h/mL | 8630 ± 2040 ng/mL | 77.5 mL/min/kg | 8.89 ± 4.8 h | 3.91 ± 1.4 h | 4.64 ± 1.88 h | significant decrease | -11.5% | 4.4% | -10.1% | C=C1C(=O)OC[C@H]1C(c1cc(OC)c2c(c1)OCO2)c1cc(OC)c2c(c1)OCO2 [PepE, Peperomin E] | ~65% | ~85% | Tmax ([1]; male, Sprague-Dawley, rat, plasma, iv, 50 mg/kg, rat plasma, DMAPE 50 mg/kg intravenous): 0.21 ± 0.17 h; BIAM alkylation of Sec residue of TrxR1 (Sec residue in TrxR1): significantly block; Freeze-thaw 3 cycles RE (%) ([3]; 200 ng/ml): -13.2%; Store at -20℃ for 24h RE (%) ([3]; 200 ng/ml): 11.9%; Store at auto-sampler RE (%) ([3]; 200 ng/ml): -10.5%; Freeze-thaw 3 cycles RE (%) ([3]; 1000 ng/ml): -3.6%; Store at -20℃ for 24h RE (%) ([3]; 1000 ng/ml): 1.7%; Store at auto-sampler RE (%) ([3]; 1000 ng/ml): -7.2%; stability in rat plasma samples [3]: stable
25400 ± 8950 ng·h/mL | 25200 ± 8960 ng·h/mL | 5760 ± 2510 ng/mL | 4.26 ± 1.63 h | 4.9 ± 0.42 h | 5.29 ± 0.32 h | ≤ 0.85 h | 30000 ± 7010 ng·h/mL | 29900 ± 7070 ng·h/mL | 21700 ± 3590 ng/mL | 29 mL/min/kg | 4.33 ± 1.77 h | 2.61 ± 0.86 h | 2.73 ± 0.85 h | significant decrease | -13.1% | -11.0% | -11.3% | COc1cc(C(c2cc(OC)c3c(c2)OCO3)[C@@H]2COC(=O)[C@H]2CN(C)CCO)cc2c1OCO2 [DMAPE, (2S,3S)-6-Methyl (hydroxyethyl) amino-2,6-dihydropeperomin E] | ~55% | ~90% | bioavailability ([1]; male, Sprague-Dawley, rat, plasma, oral, 50 mg/kg, rat, DMAPE 50 mg/kg intragastric vs intravenous, read-out: Bioavailability, F): 85%; CL ([1]; rat plasma, DMAPE 50 mg/kg intragastric): 35.7 ± 10.2 mL/min/kg; Freeze-thaw 3 cycles RE (%) ([3]; 200 ng/ml): 11.2%; Store at -20℃ for 24h RE (%) ([3]; 200 ng/ml): 3.0%; Store at auto-sampler RE (%) ([3]; 200 ng/ml): -1.3%; Freeze-thaw 3 cycles RE (%) ([3]; 1000 ng/ml): -5.1%; Store at -20℃ for 24h RE (%) ([3]; 1000 ng/ml): 3.3%; Store at auto-sampler RE (%) ([3]; 1000 ng/ml): -3.7%; stability in rat plasma samples [3]: stable
